Reference: US5639766A, “N-substituted azaheterocyclic carboxylic acids and esters thereof” (Novo Nordisk A/S, priority 1993, dated 1997)
Structures can show the parent of a compound that is named as a salt.

How the values were obtained:
[1] = tested on: GABA uptake from the synaptic cleft into presynaptic nerve terminals and glial cells; settings: background statement; cited from earlier work
[2] = background statement; cited from earlier work
[3] = tested on: [^3 H]-GABA uptake; experiment: In vitro inhibition of [^3 H]-GABA uptake in rat cortical tissue; format: biochemical, Male wistar rat; settings: rat cortical tissue homogenate, pH 7.5, 60 minutes at 30° C.
Description: Values for in vitro inhibition of [^3 H]-GABA uptake for the invention compounds were assessed essentially by the method of Fjalland (Acta Pharmacol. Toxicol. 1978, 42, 73-76). Male wistar rat cortical tissue was gently homogenized by hand using a glass/PTFE homogenizer in 10 volumes of 0.32M sucrose. Incubation was performed in a 40 mM tris HCl buffer (pH 7.5 at 30° C.) containing […], 4 mM MgSO4, […] and 10 mM glucose, for 60 minutes at 30° C. Values for inhibition of GABA uptake for some representative compounds are recorded in Table I.

[4] = tested on: GABA uptake; settings: oral; Yunger, L. M. et al., 1984; cited from earlier work

Compound	IC50 [3]	orally active inhibitors of GABA uptake [4]	other results
O=C(O)C1CCCNC1 (centres unmarked) [3-piperidinecarboxylic acid]	–	–	inhibitor of GABA uptake [1]: well-known and potent inhibitor of GABA uptake; cross the blood-brain barrier [2]: unable to cross the blood-brain barrier
O=C(O)[C@@H]1CCCN(CCON=C2CCCCC2c2ccccc2)C1 (stereo partly drawn) [Example 1, (R)-1-(2-(((2-Phenylcyclohexylidene)amino)oxy)ethyl)-3-piperidinecarboxylicacid hydrochloride]	332 nM	–	–
O=C(O)[C@@H]1CCCN(CCON=C2CCCC=C2c2ccccc2)C1 [Example 2, (R)-1-(2-(((2-Phenylcyclohex-2-enylidene)amino)oxy)ethyl)-3-piperidinecarboxylic acid hydrochloride]	417 nM	–	–
O=C(O)[C@@H]1CCCN(CCON=C2c3ccccc3CCC2c2ccccc2)C1 (stereo partly drawn) [Example 4, (R)-1-(2-(((2-Phenyl-1,2,3,4-tetrahydro-1-naphthylidene)amino)oxy)ethyl)-3-piperidinecarboxylic acid hydrochloride]	819 nM	–	–
O=C(O)[C@@H]1CCCN(CCON=C2CC(c3ccccc3)c3ccccc32)C1 (stereo partly drawn) [Example 5, (R)-1-(2-(((3-Phenyl-1-indanylidene)amino)oxy)ethyl)-3-piperidinecarboxylicacid hydrochloride]	1380 nM	–	–
O=C(O)C1CCCN(CCC=C(c2ccccc2)c2ccccc2)C1 (centres unmarked) [SK&F 89976A, N-(4,4-diphenyl-3-buten-1-yl)nipecotic acid]	–	orally active inhibitors of GABA uptake	–
O=C(O)C1=CCCN(CCC=C(c2ccccc2)c2ccccc2)C1 [SK&F 100330A, N-(4,4-diphenyl-3-buten-1-yl)guvacine]	–	orally active inhibitors of GABA uptake	–
O=C(O)CC1CCN(CCC=C(c2ccccc2)c2ccccc2)C1 (stereo not drawn) [SK&F 100561, N-(4,4-diphenyl-3-buten-1-yl)-homo-β-proline]	–	orally active inhibitors of GABA uptake	–
O=C(O)C1CCCN(CCC=C(c2ccccc2)c2cccs2)C1 (centres unmarked) [SK&F 100604J, N-(4-phenyl-4-(2-thienyl)-3-buten-1-yl)nipecotic acid]	–	orally active inhibitors of GABA uptake	–
(R)-1-(2-(((2-(Benzylidene)cyclohexylidene)amino)oxy)ethyl)-3-piperidinecarboxylic acid hydrochloride [Example 3]	9500 nM	–	–
